Holding throughout (test): cell-based
One test deals with hNav1.7 (Homo sapiens, UniProt Q15858). Format: cell-based. The conditions noted are these: IonWorks Quattro, use-dependent block, hNav1.7; read-out: IWQ Use Nav1.7. A general note: Patch clamp records ionic current or voltage across a cell membrane.
The target in the next test is hNav1.5 (Homo sapiens, UniProt Q14524). The conditions noted are these: IonWorks Quattro, use-dependent block, hNav1.5; read-out: IWQ Use Nav1.5.
A further test has as its target hNav1.3 (Homo sapiens, UniProt Q9NY46). The conditions noted are these: IonWorks Quattro, use-dependent block, hNav1.3; read-out: IWQ Use Nav1.3.

Positions of bridges follow the written chain, without caps; N, C: chain ends. Non-standard residues stand in square brackets, D forms with d. Residues, ends and D or L forms follow the SMILES beside them. Groups on a side chain read outwards from the residue. *: point of attachment. Pent4ynoyl = C#CCCC(=O)*; Pra = C#CC[C@H](N)C(=O)O; Abu = CC[C@H](N)C(=O)O

Sequence of hNav1.3 (Q9NY46 whole entry, looked up): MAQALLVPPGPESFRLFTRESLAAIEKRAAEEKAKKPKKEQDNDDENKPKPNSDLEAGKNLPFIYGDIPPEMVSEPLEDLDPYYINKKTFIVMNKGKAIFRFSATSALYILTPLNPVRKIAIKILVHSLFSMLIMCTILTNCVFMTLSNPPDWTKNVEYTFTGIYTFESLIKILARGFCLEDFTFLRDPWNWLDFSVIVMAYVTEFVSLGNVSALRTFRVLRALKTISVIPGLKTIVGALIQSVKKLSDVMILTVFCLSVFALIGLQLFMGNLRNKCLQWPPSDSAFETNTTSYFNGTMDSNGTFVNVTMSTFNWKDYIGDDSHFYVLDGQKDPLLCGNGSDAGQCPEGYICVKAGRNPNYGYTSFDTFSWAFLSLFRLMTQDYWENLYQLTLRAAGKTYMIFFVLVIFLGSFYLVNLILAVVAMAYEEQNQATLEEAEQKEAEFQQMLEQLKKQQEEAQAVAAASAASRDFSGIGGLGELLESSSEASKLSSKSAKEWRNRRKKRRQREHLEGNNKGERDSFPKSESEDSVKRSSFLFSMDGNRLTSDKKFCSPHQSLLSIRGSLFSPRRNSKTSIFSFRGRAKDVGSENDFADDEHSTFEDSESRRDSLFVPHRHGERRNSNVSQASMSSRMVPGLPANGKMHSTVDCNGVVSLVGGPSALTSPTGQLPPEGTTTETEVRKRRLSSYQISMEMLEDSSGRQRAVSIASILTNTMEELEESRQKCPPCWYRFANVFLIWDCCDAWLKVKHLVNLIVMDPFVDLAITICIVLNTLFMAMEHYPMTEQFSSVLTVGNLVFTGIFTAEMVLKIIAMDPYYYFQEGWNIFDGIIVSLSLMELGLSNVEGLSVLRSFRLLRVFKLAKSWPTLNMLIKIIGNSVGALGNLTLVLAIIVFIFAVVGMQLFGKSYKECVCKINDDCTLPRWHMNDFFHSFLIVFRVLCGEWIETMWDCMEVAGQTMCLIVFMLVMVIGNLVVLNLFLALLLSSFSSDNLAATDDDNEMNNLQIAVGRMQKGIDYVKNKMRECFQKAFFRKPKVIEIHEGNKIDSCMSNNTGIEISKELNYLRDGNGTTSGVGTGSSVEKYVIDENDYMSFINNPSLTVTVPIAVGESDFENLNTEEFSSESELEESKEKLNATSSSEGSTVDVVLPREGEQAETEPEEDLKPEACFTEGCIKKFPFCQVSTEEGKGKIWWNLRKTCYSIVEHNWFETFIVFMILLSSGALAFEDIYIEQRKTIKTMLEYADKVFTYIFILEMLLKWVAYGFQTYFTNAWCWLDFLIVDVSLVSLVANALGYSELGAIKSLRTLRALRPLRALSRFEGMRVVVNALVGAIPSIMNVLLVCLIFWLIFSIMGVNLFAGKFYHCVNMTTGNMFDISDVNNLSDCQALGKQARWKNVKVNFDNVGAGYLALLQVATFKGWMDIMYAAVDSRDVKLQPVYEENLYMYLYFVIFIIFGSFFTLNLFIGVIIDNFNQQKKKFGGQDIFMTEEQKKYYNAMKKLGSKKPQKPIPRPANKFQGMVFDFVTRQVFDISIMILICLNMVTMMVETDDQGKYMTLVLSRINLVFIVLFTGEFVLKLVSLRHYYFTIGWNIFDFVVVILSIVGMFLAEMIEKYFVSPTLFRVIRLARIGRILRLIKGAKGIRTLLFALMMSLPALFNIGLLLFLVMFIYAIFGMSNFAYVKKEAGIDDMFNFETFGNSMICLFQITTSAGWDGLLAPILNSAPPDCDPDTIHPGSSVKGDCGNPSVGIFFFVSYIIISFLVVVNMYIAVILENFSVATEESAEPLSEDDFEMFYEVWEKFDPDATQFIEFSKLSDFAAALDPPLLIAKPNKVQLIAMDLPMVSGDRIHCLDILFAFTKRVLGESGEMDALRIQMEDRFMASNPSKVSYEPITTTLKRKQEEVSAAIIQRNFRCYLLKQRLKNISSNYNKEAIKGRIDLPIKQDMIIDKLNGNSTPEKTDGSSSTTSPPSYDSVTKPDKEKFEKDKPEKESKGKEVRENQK
Sequence of hNav1.5 (Q14524 whole entry, looked up): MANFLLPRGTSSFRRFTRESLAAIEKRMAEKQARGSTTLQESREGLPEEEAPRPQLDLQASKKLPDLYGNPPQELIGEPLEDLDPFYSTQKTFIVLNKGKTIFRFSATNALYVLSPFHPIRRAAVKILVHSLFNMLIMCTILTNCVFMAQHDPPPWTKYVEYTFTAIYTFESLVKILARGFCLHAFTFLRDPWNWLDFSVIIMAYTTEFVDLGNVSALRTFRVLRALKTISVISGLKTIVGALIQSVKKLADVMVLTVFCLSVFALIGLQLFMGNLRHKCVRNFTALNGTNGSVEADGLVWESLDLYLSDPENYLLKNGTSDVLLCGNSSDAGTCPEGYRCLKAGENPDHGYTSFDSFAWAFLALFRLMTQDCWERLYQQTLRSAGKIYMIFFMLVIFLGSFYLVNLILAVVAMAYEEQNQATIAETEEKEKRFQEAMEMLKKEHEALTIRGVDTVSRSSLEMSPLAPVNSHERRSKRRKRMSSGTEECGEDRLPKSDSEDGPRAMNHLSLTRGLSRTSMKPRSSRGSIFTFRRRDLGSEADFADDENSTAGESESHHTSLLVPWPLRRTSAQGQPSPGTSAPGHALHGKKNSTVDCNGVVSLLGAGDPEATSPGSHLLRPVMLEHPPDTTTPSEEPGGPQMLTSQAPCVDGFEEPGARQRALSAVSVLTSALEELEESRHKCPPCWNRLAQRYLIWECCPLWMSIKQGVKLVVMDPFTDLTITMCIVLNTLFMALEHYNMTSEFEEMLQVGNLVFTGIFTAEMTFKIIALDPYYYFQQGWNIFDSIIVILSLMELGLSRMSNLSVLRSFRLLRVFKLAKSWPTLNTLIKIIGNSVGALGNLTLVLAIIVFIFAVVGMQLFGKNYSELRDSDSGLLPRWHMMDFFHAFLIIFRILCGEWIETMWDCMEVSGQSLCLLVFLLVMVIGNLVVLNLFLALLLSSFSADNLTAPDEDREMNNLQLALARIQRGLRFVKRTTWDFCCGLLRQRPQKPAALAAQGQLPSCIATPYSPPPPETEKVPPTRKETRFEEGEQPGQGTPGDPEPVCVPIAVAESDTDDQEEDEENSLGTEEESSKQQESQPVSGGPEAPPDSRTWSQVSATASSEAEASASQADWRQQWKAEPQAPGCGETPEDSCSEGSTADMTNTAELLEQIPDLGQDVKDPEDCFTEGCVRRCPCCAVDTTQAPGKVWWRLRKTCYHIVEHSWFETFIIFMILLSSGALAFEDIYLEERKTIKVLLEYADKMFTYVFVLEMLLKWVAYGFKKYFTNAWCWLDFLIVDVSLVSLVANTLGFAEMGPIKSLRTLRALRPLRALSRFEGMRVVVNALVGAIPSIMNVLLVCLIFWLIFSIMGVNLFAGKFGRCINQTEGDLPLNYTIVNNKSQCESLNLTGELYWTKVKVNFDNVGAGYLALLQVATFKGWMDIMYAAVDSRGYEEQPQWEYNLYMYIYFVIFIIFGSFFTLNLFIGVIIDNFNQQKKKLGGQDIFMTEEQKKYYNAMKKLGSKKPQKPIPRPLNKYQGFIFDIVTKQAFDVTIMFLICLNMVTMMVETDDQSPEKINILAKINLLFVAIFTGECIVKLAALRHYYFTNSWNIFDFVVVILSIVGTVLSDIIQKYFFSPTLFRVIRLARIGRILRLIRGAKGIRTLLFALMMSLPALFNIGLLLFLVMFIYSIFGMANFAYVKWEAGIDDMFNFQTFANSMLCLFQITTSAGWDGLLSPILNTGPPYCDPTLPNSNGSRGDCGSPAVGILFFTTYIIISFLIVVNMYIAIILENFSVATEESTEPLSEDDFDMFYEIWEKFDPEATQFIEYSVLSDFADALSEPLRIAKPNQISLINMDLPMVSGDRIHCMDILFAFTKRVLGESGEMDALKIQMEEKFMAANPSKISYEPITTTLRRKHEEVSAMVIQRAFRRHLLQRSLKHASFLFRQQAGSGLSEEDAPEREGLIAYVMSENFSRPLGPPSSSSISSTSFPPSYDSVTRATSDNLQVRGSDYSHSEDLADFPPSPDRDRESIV

Regarding `C#CC[C@H](NC(C)=O)C(=O)NCCCC[C@@H]1NC(=O)[C@H](CC(=O)O)NC(=O)[C@@H]2CCCN2C(=O)[C@H]([C@@H](C)CC)NC(=O)[C@@H]2CSSC[C@@H]3NC(=O)[C@H](C(C)C)NC(=O)[C@H](CC(C)C)NC(=O)[C@H](CC(N)=O)NC(=O)[C@@H]4CCCN4C(=O)[C@H](CCCNC(=N)N)NC(=O)[C@H](CSSC[C@H](NC(=O)[C@@H](N)CC(=O)O)C(=O)N[C@@H](CC(C)C)C(=O)NCC(=O)N[C@@H](C)C(=O)N[C@@H](Cc4ccccc4)C(=O)N[C@@H](CCCNC(=N)N)C(=O)N[C@@H](CCCCN)C(=O)N2)NC(=O)[C@H](CSSC[C@@H](C(=O)N[C@@H](CCCCN)C(=O)N[C@@H](Cc2ccc(O)cc2)C(=O)N[C@H](C(=O)N[C@@H](Cc2ccccc2)C(N)=O)C(C)C)NC(=O)[C@H](Cc2c[nH]c4ccccc24)NC(=O)[C@H](CCCCN)NC(=O)[C@H](Cc2c[nH]cn2)NC(=O)[C@H]([C@@H](C)O)NC(=O)[C@H](CCCNC(=N)N)NC(=O)[C@H](CO)NC3=O)NC(=O)[C@H](CCCCN)NC(=O)[C@H](CC(=O)O)NC1=O` [compound 794] (H-DCLGAFRKCIPDK([Pra-Ac])DKCCRPNLVCSRTHKWCKYVF-NH2; disulfide 2-17, 9-23, 16-30), the figures for the IC50 on hNav1.7, at hNav1.5 and at hNav1.3 were 890 nM, 37800 nM and 700 nM, respectively.
In the same order, the values of `C#CC[C@@H]1NC(=O)[C@H](CC(=O)O)NC(=O)[C@@H]2CCCN2C(=O)[C@H]([C@@H](C)CC)NC(=O)[C@@H]2CSSC[C@@H]3NC(=O)[C@H](C(C)C)NC(=O)[C@H](CC(C)C)NC(=O)[C@H](CC(N)=O)NC(=O)[C@@H]4CCCN4C(=O)[C@H](CCCNC(=N)N)NC(=O)[C@H](CSSC[C@H](NC(=O)[C@@H](N)CC(=O)O)C(=O)N[C@@H](CC(C)C)C(=O)NCC(=O)N[C@@H](C)C(=O)N[C@@H](CC(C)C)C(=O)N[C@@H](CCCNC(=N)N)C(=O)N[C@@H](CCCCN)C(=O)N2)NC(=O)[C@H](CSSC[C@@H](C(=O)N[C@@H](CCCCN)C(=O)N[C@@H](Cc2ccc(O)cc2)C(=O)N[C@H](C(=O)N[C@@H](Cc2ccccc2)C(N)=O)C(C)C)NC(=O)[C@H](Cc2c[nH]c4ccccc24)NC(=O)[C@H](CCCNC(=N)N)NC(=O)[C@H](Cc2c[nH]cn2)NC(=O)[C@H](CC(C)C)NC(=O)[C@H](CCCNC(=N)N)NC(=O)[C@H](CO)NC3=O)NC(=O)[C@H](CCCCN)NC(=O)[C@H](CC(=O)O)NC1=O` [compound 796] (H-DCLGALRKCIPD[Pra]DKCCRPNLVCSRLHRWCKYVF-NH2; disulfide 2-17, 9-23, 16-30) are 220 nM, 36400 nM and 480 nM.
For `C#CC[C@@H]1NC(=O)[C@H](CC(=O)O)NC(=O)[C@@H]2CCCN2C(=O)[C@H]([C@@H](C)CC)NC(=O)[C@@H]2CSSC[C@@H]3NC(=O)[C@H](C(C)C)NC(=O)[C@H](CC(C)C)NC(=O)[C@H](CC(N)=O)NC(=O)[C@@H]4CCCN4C(=O)[C@H](CCCNC(=N)N)NC(=O)[C@H](CSSC[C@H](NC(=O)[C@@H](N)CC(=O)O)C(=O)N[C@@H](CC(C)C)C(=O)NCC(=O)N[C@@H](CC)C(=O)N[C@@H](CC(C)C)C(=O)N[C@@H](CCCNC(=N)N)C(=O)N[C@@H](CCCCN)C(=O)N2)NC(=O)[C@H](CSSC[C@@H](C(=O)N[C@@H](CCCCN)C(=O)N[C@@H](Cc2ccc(O)cc2)C(=O)N[C@H](C(=O)N[C@@H](Cc2ccccc2)C(N)=O)C(C)C)NC(=O)[C@H](Cc2c[nH]c4ccccc24)NC(=O)[C@H](CCCCN)NC(=O)[C@H](Cc2c[nH]cn2)NC(=O)[C@H]([C@@H](C)O)NC(=O)[C@H](CCCNC(=N)N)NC(=O)[C@H](CO)NC3=O)NC(=O)[C@H](CCCCN)NC(=O)[C@H](CC(=O)O)NC1=O` [compound 797] (H-DCLG[Abu]LRKCIPD[Pra]DKCCRPNLVCSRTHKWCKYVF-NH2; disulfide 2-17, 9-23, 16-30) the same measures were 520 nM, 34000 nM and 930 nM.
Consider `C#CC[C@@H]1NC(=O)[C@H](CC(=O)O)NC(=O)[C@@H]2CCCN2C(=O)[C@H](CCC(=O)O)NC(=O)[C@@H]2CSSC[C@@H]3NC(=O)[C@H](C(C)C)NC(=O)[C@H](CC(C)C)NC(=O)[C@H](CC(N)=O)NC(=O)[C@@H]4CCCN4C(=O)[C@H](CCCNC(=N)N)NC(=O)[C@H](CSSC[C@H](NC(=O)[C@@H](N)CC(=O)O)C(=O)N[C@@H](CC(C)C)C(=O)NCC(=O)N[C@@H](C)C(=O)N[C@@H](Cc4ccccc4)C(=O)N[C@@H](CCCNC(=N)N)C(=O)N[C@@H](CCCCN)C(=O)N2)NC(=O)[C@H](CSSC[C@@H](C(=O)N[C@@H](CCCCN)C(=O)N[C@@H](Cc2ccc(O)cc2)C(=O)N[C@H](C(=O)N[C@@H](Cc2ccccc2)C(N)=O)C(C)C)NC(=O)[C@H](Cc2c[nH]c4ccccc24)NC(=O)[C@H](CCCNC(=N)N)NC(=O)[C@H](Cc2c[nH]cn2)NC(=O)[C@H](CC(C)C)NC(=O)[C@H](CCCNC(=N)N)NC(=O)[C@H](CO)NC3=O)NC(=O)[C@H](CCCCN)NC(=O)[C@H](CC(=O)O)NC1=O` [compound 798] (H-DCLGAFRKCEPD[Pra]DKCCRPNLVCSRLHRWCKYVF-NH2; disulfide 2-17, 9-23, 16-30), for which the results for the IC50 at hNav1.7, on hNav1.5 and at hNav1.3 were 540 nM, 32200 nM and 560 nM, respectively.
In the same order, the values of `C#CC[C@H](NC(C)=O)C(=O)NCCCC[C@@H]1NC(=O)[C@H](CC(=O)O)NC(=O)[C@@H]2CCCN2C(=O)[C@H]([C@@H](C)CC)NC(=O)[C@@H]2CSSC[C@@H]3NC(=O)[C@H](C(C)C)NC(=O)[C@H](CC(C)C)NC(=O)[C@H](CC(N)=O)NC(=O)[C@@H]4CCCN4C(=O)[C@H](CCCNC(=N)N)NC(=O)[C@H](CSSC[C@H](NC(=O)[C@@H](N)CC(=O)O)C(=O)N[C@@H](CC(C)C)C(=O)NCC(=O)N[C@@H](CC)C(=O)N[C@@H](CC(C)C)C(=O)N[C@@H](CCCNC(=N)N)C(=O)N[C@@H](CCCCN)C(=O)N2)NC(=O)[C@H](CSSC[C@@H](C(=O)N[C@@H](CCCCN)C(=O)N[C@@H](Cc2ccc(O)cc2)C(=O)N[C@H](C(=O)N[C@@H](Cc2ccccc2)C(N)=O)C(C)C)NC(=O)[C@H](Cc2c[nH]c4ccccc24)NC(=O)[C@H](CCCCN)NC(=O)[C@H](Cc2c[nH]cn2)NC(=O)[C@H]([C@@H](C)O)NC(=O)[C@H](CCCNC(=N)N)NC(=O)[C@H](CO)NC3=O)NC(=O)[C@H](CCCCN)NC(=O)[C@H](CC(=O)O)NC1=O` [compound 799] (H-DCLG[Abu]LRKCIPDK([Pra-Ac])DKCCRPNLVCSRTHKWCKYVF-NH2; disulfide 2-17, 9-23, 16-30) are 750 nM, 28100 nM and 700 nM.
In the same order, the values of `C#CCCC(=O)NCCCC[C@@H]1NC(=O)[C@H](CC(=O)O)NC(=O)[C@@H]2CCCN2C(=O)[C@H]([C@@H](C)CC)NC(=O)[C@@H]2CSSC[C@@H]3NC(=O)[C@H](C(C)C)NC(=O)[C@H](CC(C)C)NC(=O)[C@H](CC(N)=O)NC(=O)[C@@H]4CCCN4C(=O)[C@H](CCCNC(=N)N)NC(=O)[C@H](CSSC[C@H](NC(=O)[C@@H](N)CC(=O)O)C(=O)N[C@@H](CC(C)C)C(=O)NCC(=O)N[C@@H](CC)C(=O)N[C@@H](CC(C)C)C(=O)N[C@@H](CCCNC(=N)N)C(=O)N[C@@H](CCCCN)C(=O)N2)NC(=O)[C@H](CSSC[C@@H](C(=O)N[C@@H](CCCCN)C(=O)N[C@@H](Cc2ccc(O)cc2)C(=O)N[C@H](C(=O)N[C@@H](Cc2ccccc2)C(N)=O)C(C)C)NC(=O)[C@H](Cc2c[nH]c4ccccc24)NC(=O)[C@H](CCCNC(=N)N)NC(=O)[C@H](Cc2c[nH]cn2)NC(=O)[C@H]([C@@H](C)O)NC(=O)[C@H](CCCNC(=N)N)NC(=O)[C@H](CO)NC3=O)NC(=O)[C@H](CCCCN)NC(=O)[C@H](CC(=O)O)NC1=O` [compound 801] (H-DCLG[Abu]LRKCIPDK(Pent4ynoyl)DKCCRPNLVCSRTHRWCKYVF-NH2; disulfide 2-17, 9-23, 16-30) are 550 nM, 39700 nM and 810 nM.
For `C#CC[C@@H]1NC(=O)[C@@H]2CCCN2C(=O)[C@H]([C@@H](C)CC)NC(=O)[C@@H]2CSSC[C@@H]3NC(=O)[C@H](C(C)C)NC(=O)[C@H](CC(C)C)NC(=O)[C@H](CC(N)=O)NC(=O)[C@@H]4CCCN4C(=O)[C@H](CCCNC(=N)N)NC(=O)[C@H](CSSC[C@H](NC(=O)[C@@H](N)CC(=O)O)C(=O)N[C@@H](CC(C)C)C(=O)NCC(=O)N[C@@H](C)C(=O)N[C@@H](CC(C)C)C(=O)N[C@@H](CCCNC(=N)N)C(=O)N[C@@H](CCCCN)C(=O)N2)NC(=O)[C@H](CSSC[C@@H](C(=O)N[C@@H](CCCCN)C(=O)N[C@@H](Cc2ccc(O)cc2)C(=O)N[C@H](C(=O)N[C@@H](Cc2ccccc2)C(N)=O)C(C)C)NC(=O)[C@H](Cc2c[nH]c4ccccc24)NC(=O)[C@H](CCCNC(=N)N)NC(=O)[C@H](Cc2c[nH]cn2)NC(=O)[C@H](CC(C)C)NC(=O)[C@H](CCCNC(=N)N)NC(=O)[C@H](CO)NC3=O)NC(=O)[C@H](CCCCN)NC(=O)[C@H](CC(=O)O)NC(=O)[C@H](CC(N)=O)NC1=O` [compound 802] the same measures were 260 nM, more than 50000 nM and 540 nM.
Regarding `C#CC[C@@H]1NC(=O)[C@@H]2CCCN2C(=O)[C@H]([C@@H](C)CC)NC(=O)[C@@H]2CSSC[C@@H]3NC(=O)[C@H](C(C)C)NC(=O)[C@H](CC(C)C)NC(=O)[C@H](CC(N)=O)NC(=O)[C@@H]4CCCN4C(=O)[C@H](CCCNC(=N)N)NC(=O)[C@H](CSSC[C@H](NC(=O)[C@@H](N)CC(=O)O)C(=O)N[C@@H](CC(C)C)C(=O)NCC(=O)N[C@@H](C)C(=O)N[C@@H](Cc4ccccc4)C(=O)N[C@@H](CCCNC(=N)N)C(=O)N[C@@H](CCCCN)C(=O)N2)NC(=O)[C@H](CSSC[C@@H](C(=O)N[C@@H](CCCCN)C(=O)N[C@@H](Cc2ccc(O)cc2)C(=O)N[C@H](C(=O)N[C@@H](Cc2ccccc2)C(N)=O)C(C)C)NC(=O)[C@H](Cc2c[nH]c4ccccc24)NC(=O)[C@H](CCCNC(=N)N)NC(=O)[C@H](Cc2c[nH]cn2)NC(=O)[C@H](CC(C)C)NC(=O)[C@H](CCCNC(=N)N)NC(=O)[C@H](CO)NC3=O)NC(=O)[C@H](CCCCN)NC(=O)[C@H](CC(=O)O)NC(=O)[C@H](CC(N)=O)NC1=O` [compound 803], the IC50 at hNav1.7 was found to be 130 nM; on hNav1.5 it was 36500 nM; on hNav1.3 it was 120 nM.

The values are drawn from patent US9340590B2 (priority 2011, dated 2016).
